The values that follow come from ChEMBL document CHEMBL5316342, “Structure-Based Design of Potent Iminosugar Inhibitors of Endoplasmic Reticulum α-Glucosidase I with Anti-SARS-CoV-2 Activity” (J Med Chem, 2023).

The source made the active and inactive calls. The calls are words filed in the database; no cut-off is given here. A value given as a limit tells only on which side of the number the result lay.

The nature of series [1]: Inhibition of C-terminal his6-tagged full length recombinant mouse Endoplasmic reticulum alpha-glucosidase 1 (59 to 834 residues) expressed in FreeStyle 293-F cells using trisaccharide as substrate preincubated for 60 mins followed by substrate addition and measured for 90 mins by Amplex Red assay.
A short description of series [2]: Cytotoxicity against human A549-ACE2 cells infected with SARS-CoV-2 USA-WA1/2020 assessed as reduction in cell viability at 25 uM measured for 3 days by WST-1 assay relative to control. The class given is toxicity, cell-based. The following applies: a549-ace2, 72 h, time 3 day.
Series [3] can be described thus: Inhibition of mouse recombinant alpha-glucosidase using 4-methylumbelliferyl-[…]-D-glucopyranoside as substrate preincubated for 60 mins followed by substrate addition and measured after 30 mins by fluorescence based analysis.
Series [4] relates to SARS-CoV-2. Nature of the series: Antiviral activity against SARS-CoV-2 USA-WA1/2020 infected in human A549-ACE2 cells assessed as maximum reduction in viral burden up to 100 uM measured upto 4 days by viral plaque assay. Format: functional. Particulars: Severe acute respiratory syndrome coronavirus 2, time <= 4.0 day.
A short description of series [5]: Cytotoxicity against human A549-ACE2 cells infected with SARS-CoV-2 USA-WA1/2020 assessed as reduction in cell viability measured for 3 days by WST-1 assay. The class given is toxicity, cell-based. The following applies: a549-ace2, 72 h, time 3 day.
Series [6] relates to SARS-CoV-2. Briefly: Antiviral activity against SARS-CoV-2 USA-WA1/2020 infected in human A549-ACE2 cells assessed as reduction in viral burden measured upto 4 days by viral plaque assay. Format: functional, organism-based. The following applies: Severe acute respiratory syndrome coronavirus 2, USA-WA1/2020, A549-ACE2, 96 h.

For orientation: IC50 means the concentration that gives 50% inhibition. For the compound `C[C@@H]1CN(c2ccc(NCc3ccc(CN4C[C@H](O)[C@@H](O)[C@H](O)[C@H]4CO)cc3)c([N+](=O)[O-])c2)C[C@H](C)O1`, the 50% inhibitory concentration (IC50) stood at 1 nM in series [1] and 4 nM in series [3]. Also, the Activity in series [2] is given as 51.5%. Moreover, the result in series [4] was inactive.
By CC50 is commonly meant the concentration at which the toxic effect on the cells reaches its halfway point. In the case of `O=[N+]([O-])c1cc(N2[C@@H]3CC[C@H]2COC3)ccc1NCc1ccc(CN2C[C@H](O)[C@@H](O)[C@H](O)[C@H]2CO)cc1`, the IC50 in series [1] and in series [3] was less than 1 nM each time. For the same compound, in series [2], the Activity stood at 75%. Further, the half-maximal cytotoxic concentration (CC50) in series [5] came out at 39800 nM.
Take `OC[C@@H]1[C@@H](O)[C@H](O)[C@@H](O)CN1CCc1ccc(CCNc2cc(O)cc(-c3ncon3)c2)cc1`: the figures for the IC50 in series [1] and in series [3] were 1010 nM and 295 nM, respectively. Besides, the Activity in series [2] came to 83.8%. For the same compound, the 50% cytotoxic concentration (CC50) in series [5] was greater than 100000 nM.
In general, EC50 refers to the concentration that produces a half-maximal response. With `COCCCCCCCCCN1C[C@H](O)[C@@H](O)[C@H](O)[C@H]1CO.Cl`, in series [2], the Activity was determined as 100%. The EC50 in series [6] was 3320 nM. Moreover, the CC50 in series [5] was greater than 100000 nM.
For the compound `O=[N+]([O-])c1cc(N2C3CCC2COC3)ccc1NCCCCCCN1C[C@H](O)[C@@H](O)[C@H](O)[C@H]1CO`, the IC50 in series [1] turned out to be 52 nM; in series [3], 30 nM. Also, the Activity in series [2] is 98.9%. The EC50 in series [6] is 1610 nM. For the same compound, in series [5], the CC50 was greater than 100000 nM.
Take `[N-]=[N+]=Nc1ccc(NCCOC(=O)NCCN[C@H]2C[C@](O)(CO)[C@@H](O)[C@H](O)[C@H]2O)c([N+](=O)[O-])c1`: the half-inhibitory concentration (IC50) in series [1] is 1130 nM.
Consider `O=[N+]([O-])c1cc(-n2nccn2)ccc1NCCCCCCN[C@H]1C[C@](O)(CO)[C@@H](O)[C@H](O)[C@H]1O`, for which the half-inhibitory concentration (IC50) in series [1] is 47 nM; in series [3] it was less than 1 nM.
For `CCCCN[C@H]1C[C@](O)(CO)[C@@H](O)[C@H](O)[C@H]1O`, the IC50 in series [1] was found to be 29500 nM.
Take `OC[C@@H]1[C@@H](O)[C@H](O)[C@@H](O)CN1Cc1ccc(CNc2ccc(N3CCOCC3)cc2)cc1`: the half-inhibitory concentration (IC50) amounted to 122 nM in series [1] and 1580 nM in series [3]. For the same compound, the Activity in series [2] turned out to be 97.6%. Further, the CC50 in series [5] is greater than 100000 nM.
With `Cc1cc(-c2ccco2)ccc1NCc1ccc(CN2C[C@H](O)[C@@H](O)[C@H](O)[C@H]2CO)cc1`, the IC50 in series [1] is less than 1 nM; in series [3], 318 nM. The Activity in series [2] was 82.6%. Also, the EC50 in series [6] is greater than 25000 nM. In series [5], the CC50 came out at 29500 nM.
For `O=[N+]([O-])c1cc(-n2cccn2)ccc1NCCCCCCN[C@H]1C[C@](O)(CO)[C@@H](O)[C@H](O)[C@H]1O`, the Activity in series [2] is given as 85.6%. Besides, the CC50 in series [5] is greater than 100000 nM.
Consider `OC[C@@H]1[C@@H](O)[C@H](O)[C@@H](O)CN1CCc1ccc(CCNc2cc(O)cc(-c3cccnn3)c2)cc1`, for which the IC50 in series [1] was 211 nM; in series [3] it was less than 1 nM. The Activity in series [2] was found to be 93.5%. The CC50 in series [5] was greater than 100000 nM.
For `CS(=O)(=O)c1cc(NCc2ccc(CN3C[C@H](O)[C@@H](O)[C@H](O)[C@H]3CO)cc2)cc(-c2cccnn2)c1`, the IC50 in series [1] came out at 21 nM; in series [3], 114 nM. Further, in series [2], the Activity turned out to be 99.2%. Besides, the CC50 in series [5] was greater than 100000 nM.
In the same order, the values of `O=[N+]([O-])c1cc(NCCCCCCN2C[C@H](O)[C@@H](O)[C@H](O)[C@H]2CO)cc(-c2ccncc2)c1` are 1 nM, less than 1 nM, 87.2% and 54200 nM.
On to `Cc1cc(NCc2cccc(CN3C[C@H](O)[C@@H](O)[C@H](O)[C@H]3CO)c2)cc(-c2ncccn2)c1`, for which the 50% inhibitory concentration (IC50) is 44 nM in series [1] and 66500 nM in series [3]. For the same compound, in series [2], the Activity was 52.9%. Also, the outcome in series [4] was inactive.
In the case of `Cc1cc(NCc2cccc(CN3C[C@H](O)[C@@H](O)[C@H](O)[C@H]3CO)n2)cc(-c2ccc[nH]2)c1`, the IC50 in series [1] was 966 nM; in series [3], greater than 100000 nM. Also, the Activity in series [2] came to 54.1%. For the same compound, the result in series [4] was inactive.
Consider `COCCc1ccc(CCCCCN2C[C@H](O)[C@@H](O)[C@H](O)[C@H]2CO)cc1`, for which the IC50 in series [1] is 1160 nM; in series [3], 76 nM.
With `[N-]=[N+]=Nc1ccc(NCCc2cncc(CCN3C[C@H](O)[C@@H](O)[C@H](O)[C@H]3CO)n2)c([N+](=O)[O-])c1`, the IC50 in series [1] is 94 nM; in series [3], 3 nM. For the same compound, in series [2], the Activity was determined as 38.8%. For the same compound, in series [4], the outcome was inactive.
As to `O=[N+]([O-])c1cc(-c2ccccc2)ccc1NCCCCCCN1C[C@H](O)[C@@H](O)[C@H](O)[C@H]1CO`, the half-inhibitory concentration (IC50) in series [1] was 57 nM; in series [3], less than 1 nM. In series [2], the Activity was 100%. Moreover, in series [6], the EC50 was determined as 420 nM. The CC50 in series [5] is greater than 100000 nM.
Turning to `OC[C@@H]1[C@@H](O)[C@H](O)[C@@H](O)CN1CCCCCCCCc1ccco1`, the IC50 is 139 nM in series [1] and 35 nM in series [3]. For the same compound, in series [2], the Activity is 95.7%. Further, the concentration giving a half-maximal response (EC50) in series [6] is 3360 nM. In series [5], the cytotoxic concentration (CC50) was found to be 35000 nM.
On to `N#Cc1cc(NCc2cccc(CN3C[C@H](O)[C@@H](O)[C@H](O)[C@H]3CO)c2)cc(C2=COCCO2)c1`, for which the IC50 in series [1] was 3 nM; in series [3], 2670 nM. The Activity in series [2] was 100%. The half-maximal cytotoxic concentration (CC50) in series [5] was greater than 100000 nM.
In the case of `[N-]=[N+]=Nc1ccc(NCCCCCCN2C[C@H](O)[C@@H](O)[C@H](O)[C@H]2CO)c([N+](=O)[O-])c1`, the IC50 was 155 nM in series [1] and 10 nM in series [3]. Also, the Activity in series [2] came to 100%. The concentration giving a half-maximal response (EC50) in series [6] worked out at 580 nM. Also, the CC50 in series [5] was greater than 100000 nM.
Consider `O=[N+]([O-])c1cc(N2CCOCC2)ccc1NCc1cccc(CN2C[C@H](O)[C@@H](O)[C@H](O)[C@H]2CO)c1`, for which the IC50 in series [1] is 99 nM; in series [3], 12800 nM. Moreover, the Activity in series [2] is on record as 36.5%. Besides, in series [4], the outcome was inactive.
For `Cc1nc2cc(-c3ncccn3)ccc2n1CCCCCCN1C[C@H](O)[C@@H](O)[C@H](O)[C@H]1CO`, the values for the 50% inhibitory concentration (IC50) in series [1] and in series [3] were 78 nM and 194 nM, respectively. For the same compound, the Activity in series [2] came to 80.8%. Besides, in series [6], the EC50 was 12200 nM. In addition, in series [5], the 50% cytotoxic concentration (CC50) is greater than 100000 nM.
In the same order, the values of `O=[N+]([O-])c1cc(-c2noc(C3CCC3)n2)ccc1NCCCCCCN1C[C@H](O)[C@@H](O)[C@H](O)[C@H]1CO` are 11 nM, less than 1 nM, 100%, 720 nM and 40700 nM.
For the compound `Cc1cc(NCc2ccc(CN3C[C@H](O)[C@@H](O)[C@H](O)[C@H]3CO)cc2)cc(-c2cccnn2)c1`, the values for the concentration for half-maximal inhibition (IC50) in series [1] and in series [3] were 73 nM and 179 nM, respectively. In addition, the Activity in series [2] worked out at 73.7%. Besides, the outcome in series [4] was inactive.
Take `COCCCCCCCCCN1C[C@H](O)[C@@H](O)[C@H](O)[C@H]1CO`: the IC50 was found to be 537 nM in series [1] and 68 nM in series [3].
As for `Cc1nc(-c2ccc(NCCCCCCN3C[C@H](O)[C@@H](O)[C@H](O)[C@H]3CO)c([N+](=O)[O-])c2)no1`, the 50% inhibitory concentration (IC50) is 99 nM in series [1] and 3 nM in series [3]. Also, the Activity in series [2] is on record as 100%. Further, the EC50 in series [6] came out at 440 nM. Moreover, the cytotoxic concentration (CC50) in series [5] is greater than 100000 nM.
For `O=[N+]([O-])c1cc(-c2ccnc(N3CCOCC3)n2)ccc1NCCCCCCN1C[C@H](O)[C@@H](O)[C@H](O)[C@H]1CO`, the IC50 in series [1] and in series [3] was less than 1 nM in each case. Further, the Activity in series [2] worked out at 58.6%. Further, the outcome in series [4] was inactive.
Regarding `OC[C@@H]1[C@@H](O)[C@H](O)[C@@H](O)CN1CCCCCCNc1cc(-c2cccnn2)cc(C2CC2)c1`, the IC50 in series [1] came to 103 nM; in series [3], 12 nM. Besides, the Activity in series [2] worked out at 100%. The concentration for a half-maximal effect (EC50) in series [6] is 7860 nM. In series [5], the cytotoxic concentration (CC50) was greater than 100000 nM.
As to `CS(=O)(=O)c1cc(NCc2cccc(CN3C[C@H](O)[C@@H](O)[C@H](O)[C@H]3CO)c2)cc(-c2ccccc2)c1`, the IC50 in series [1] was found to be 17 nM; in series [3], 4600 nM. Further, in series [2], the Activity is on record as 40.8%. For the same compound, in series [4], the outcome was inactive.
`CS(=O)(=O)c1cc(Br)cc(NCc2cccc(CN3C[C@H](O)[C@@H](O)[C@H](O)[C@H]3CO)c2)c1`: the 50% inhibitory concentration (IC50) is 19 nM in series [1] and 7920 nM in series [3]. Further, the Activity in series [2] stood at 100%. Besides, the cytotoxic concentration (CC50) in series [5] is greater than 100000 nM.
